Experimental data reported in patent US9435807B2, “Use of leucyl tRNA synthetase” (Medicinal Bioconvergence Research Center, priority 2011, dated 2016).

What was measured:
mTORC1 [1] = assay: S6K phosphorylation (mTORC1 activation) by immunoblotting in 293T cells; format: cell-based; settings: for amino acid-induced S6K phosphorylation / leucine-induced S6K phosphorylation / EC50: 293T cells; for amino acid-induced S6K phosphorylation: siRNA 48 hours; for S6K phosphorylation by the leucine analogue itself: 293T cells starved 1 hour of leucine, 0.8 or 8 mM analogue; for leucine-induced S6K phosphorylation: preincubated with 0.8 or 8 mM analogue, then 0.8 mM leucine 5 min; for EC50: Homo sapiens, HEK-293T
Method: FIGS. 9a-9d show the effect of LRS knockdown on leucine- or leucine analogues-stimulated S6K phosphorylation. In FIG. 9a, the effect of leucine analogues on leucine-stimulated S6K phosphorylation is shown. 293T cells were starved for 1 hour of leucine and preincubated with either 0.8 or 8 mM leucinol or leucine amide. After 5 min, 0.8 mM leucine was added. After 5 min incubation, cells were harvested and S6K phosphorylation was determined by immunoblotting.
In FIG. 11a, 293T cells were treated with leucine at the indicated concentration for 5 min. Leucine-dependent S6K phosphorylation was determined by immunoblotting. In FIG. 11b, quantitation of p-S6K band in FIG. 11a is shown. EC50 of leucine stimulation of mTORC1 was about […]. In FIG. 11c, kinetic parameters for leucylation and ATP-PPi exchange activity of WT LRS is shown.
(§1) For leucine depletion, cells were rinsed with leucine-free DMEM twice, incubated in leucine-free DMEM for 60 minutes, and stimulated with […] leucine for 5-60 minutes. For amino acid starvation, cells were rinsed with and incubated in DPBS containing 25 mM glucose, 1 mM sodium pyruvate, lx MEM vitamins for 60 minutes, and replaced with and incubated in DMEM for 5-60 minutes.
(§2) Cells were dissolved in the lysis buffer containing 1% Triton X-100, 40 mM HEPES (pH7.4), 2 mM EDTA, 10 mM pyrophosphate, 10 mM glycerophosphate, and protease inhibitor cocktail. The lysates were centrifuged at 13,000 rpm for 30 minutes. We then fractionated 20 μg of the extracted proteins by SDS-PAGE. For immunoprecipitations, the cells were lysed (50 mM Tris-HCL (pH 7.4), 10 mM NaCl, 1 mM EDTA, 0.5 mM EGTA, 1 mM MgCl2, 0.1% CHAPS, and 0.5% Triton X-100, 1 mM phenylmethylsulfonyl fluoride) and the primary antibodies were added to the lysates and incubated with rotation for 2 hr at 4° C. A 50% slurry of protein agarose G-sepharose was then added and the incubation continued for an additional 4 hr. After washing three times with the ice-cold lysis buffer, the precipitates were dissolved in the SDS sample buffer and separated by SDS-PAGE.

293T cells = assay: Cell size determination (FSC of G1 cells, FACS); format: cell-based
Method: For measurement of cell size using forward scatter units (FSC) with unfixed cells. 293T cells were plated, washed once with PBS, and resuspended in PBS containing 0.1% serum, 5 mM EDTA, 5 ng/ml propidium iodide (PI; Sigma). Samples were analyzed by FACS analysis (FACS caliber; Becton Dickinson) for cell size (FSC). The mean of FSC of G1 phase cells was determined.

mTORC1 [2] = assay: S6K phosphorylation (mTORC1 activation) by immunoblotting in HeLa cells; format: cell-based; settings: for S6K phosphorylation by the leucine analogue itself: HeLa cells starved 1 hour of leucine, 0.8 or 8 mM analogue; for leucine-induced S6K phosphorylation: HeLa cells, preincubated with 0.8 or 8 mM analogue, then 0.8 mM leucine 5 min
Method: In FIG. 9b, HeLa cells were starved for 1 hour of leucine and preincubated with either 0.8 or 8 mM leucinol or leucine amide. After 5 min, 0.8 mM leucine was added. After 5 min incubation, cells were harvested and S6K phosphorylation was determined by immunoblotting.
as §1, §2

LRS / RagD binding = biological target: T1, LRS / RagD binding (Homo sapiens, UniProt Q9NQL2+Q9P2J5); assay: In vitro pull-down of RagD with GST-LRS
T1 construct: made in house; RagD: 293T cell lysate
T1 sequence (Q9P2J5 whole entry): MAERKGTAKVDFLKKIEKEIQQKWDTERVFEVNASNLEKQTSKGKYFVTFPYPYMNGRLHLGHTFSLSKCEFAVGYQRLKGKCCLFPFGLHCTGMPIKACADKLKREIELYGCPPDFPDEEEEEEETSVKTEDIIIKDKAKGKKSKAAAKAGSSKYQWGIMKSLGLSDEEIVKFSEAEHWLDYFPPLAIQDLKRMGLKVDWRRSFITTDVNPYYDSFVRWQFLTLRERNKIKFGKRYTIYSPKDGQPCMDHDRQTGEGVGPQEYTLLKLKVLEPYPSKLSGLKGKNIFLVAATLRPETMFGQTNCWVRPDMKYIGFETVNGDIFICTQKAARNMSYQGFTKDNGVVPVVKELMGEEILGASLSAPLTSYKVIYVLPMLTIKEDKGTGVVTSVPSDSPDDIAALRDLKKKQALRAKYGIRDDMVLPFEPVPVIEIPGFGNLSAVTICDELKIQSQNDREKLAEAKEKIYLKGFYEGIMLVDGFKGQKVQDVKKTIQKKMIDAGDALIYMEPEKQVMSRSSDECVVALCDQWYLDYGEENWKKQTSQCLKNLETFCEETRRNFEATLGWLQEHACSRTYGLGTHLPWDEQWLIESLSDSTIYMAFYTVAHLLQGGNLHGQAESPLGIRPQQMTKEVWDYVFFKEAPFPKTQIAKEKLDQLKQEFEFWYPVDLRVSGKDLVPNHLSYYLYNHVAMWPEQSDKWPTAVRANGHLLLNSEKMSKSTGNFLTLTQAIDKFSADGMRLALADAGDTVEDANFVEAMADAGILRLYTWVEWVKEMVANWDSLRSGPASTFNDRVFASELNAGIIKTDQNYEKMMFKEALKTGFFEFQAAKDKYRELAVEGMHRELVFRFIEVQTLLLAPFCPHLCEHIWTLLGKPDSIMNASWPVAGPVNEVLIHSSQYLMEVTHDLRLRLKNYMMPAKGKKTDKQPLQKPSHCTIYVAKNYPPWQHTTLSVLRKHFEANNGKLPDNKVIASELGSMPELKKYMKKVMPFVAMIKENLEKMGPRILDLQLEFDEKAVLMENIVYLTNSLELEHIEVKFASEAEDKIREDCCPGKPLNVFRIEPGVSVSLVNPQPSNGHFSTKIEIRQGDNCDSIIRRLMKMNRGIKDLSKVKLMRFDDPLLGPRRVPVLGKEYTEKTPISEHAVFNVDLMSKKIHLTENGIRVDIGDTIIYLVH
T1 sequence (Q9NQL2 whole entry): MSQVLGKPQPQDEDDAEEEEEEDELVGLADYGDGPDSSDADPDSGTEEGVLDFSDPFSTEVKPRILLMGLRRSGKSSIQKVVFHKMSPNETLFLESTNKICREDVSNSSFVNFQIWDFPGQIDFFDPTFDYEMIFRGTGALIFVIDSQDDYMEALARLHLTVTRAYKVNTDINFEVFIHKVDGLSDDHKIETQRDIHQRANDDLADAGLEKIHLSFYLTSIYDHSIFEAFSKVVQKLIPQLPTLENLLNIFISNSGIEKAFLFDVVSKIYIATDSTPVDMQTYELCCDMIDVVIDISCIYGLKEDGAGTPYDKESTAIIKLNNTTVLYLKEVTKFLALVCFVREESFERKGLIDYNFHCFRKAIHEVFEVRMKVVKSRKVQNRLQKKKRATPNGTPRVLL
Method: In FIG. 6c, purified GST or GST-LRS protein was incubated with HA-RagD transfected cell lysates in the presence of GDPβS or GTPγS. The co-precipitated RagD was determined by immunoblotting with anti-HA antibody.
In FIG. 10a, the effect of tRNA on in vitro LRS-RagD binding. 293T cell lysates were incubated with purified GST or GST-fused LRS in the presence of the combinations of leucine (0.1 mM), ATP (0.1 mM), and tRNA^Leu (25 μg). The precipitated RagD was determined by immunoblotting with anti-RagD antibody.
Recombinant LRS or RagD fragment proteins were expressed as GST fusion proteins and purified by glutathione sepharose. The interactions between RagD fragments and myc-LRS overexpressed cell lysates or between LRS fragments and HA-RagD overexpressed cell lysates were tested using in vitro binding assays. Binding assay was conducted in 25 mM Tris-HCl buffer (pH7.4) containing 10 mM NaCl, 1 mM MgCl2, 1 mM EDTA, 0.5 mM EGTA, and 0.5% Triton X-100.

EGFP-LC3 puncta = assay: Autophagy: EGFP-LC3 puncta in siRNA-transfected cells; format: cell-based; settings: starved for leucine and serum for 2 hours
Method: The cells were starved for leucine and serum for 2 hours. Accumulation of EGFP-LC3 in puncta, was monitored.

MRS siRNA: siRNA CUACCGCUGGUUUAACAUUUCGUUU, SEQ ID NO 18 (chemistry not given here)
amino acid-induced S6K phosphorylation (mTORC1 [1]): not
cell size (293T cells): no effect

CC(C)C[C@H](N)CO [leucinol, Leucinol]
S6K phosphorylation by the leucine analogue itself (mTORC1 [1]): no effect
leucine-induced S6K phosphorylation (mTORC1 [1]): inhibited leucine-induced S6K phosphorylation in dose-dependent manner
S6K phosphorylation by the leucine analogue itself (mTORC1 [2]): no effect
leucine-induced S6K phosphorylation (mTORC1 [2]): inhibited leucine-induced S6K phosphorylation in dose-dependent manner

Nc1nc2c(ncn2[C@@H]2O[C@H](COP(=O)(O)OP(O)(O)=S)[C@@H](O)[C@H]2O)c(=O)[nH]1 [GDPβS]
binding affinity of LRS to RagD (LRS / RagD binding; GST-LRS with HA-RagD transfected 293T cell lysates, presence of nucleotide analogue): significantly reduced

CC(C)C[C@H](N)C(=O)O [Leucine, L-Leucine]
EC50 (mTORC1 [1]; 5 min, leucine 5 min, quantitation of p-S6K band (FIG. 11b legend), read-out: EC50 of leucine stimulation of mTORC1): ~80 µM
EC50 (mTORC1 [1]; read-out: EC50 for leucine stimulation of mTORC1): ~80 µM
EC50 (mTORC1 [2]; Homo sapiens, HeLa cells (data not shown), read-out: EC50 for leucine stimulation of mTORC1): ~80 µM

Nc1ncnc2c1ncn2[C@@H]1O[C@H](COP(=O)(O)OP(=O)(O)OP(=O)(O)O)[C@@H](O)[C@H]1O [ATP]
competition with RagD for LRS binding (LRS / RagD binding; GST-LRS with 293T cell lysates, ATP 0.1 mM, tRNA^Leu 25 μg): not

mTOR siRNA: siRNA GGAAGUACCCUACUUUGCUUGAGGU, SEQ ID NO 15 (chemistry not given here)
amino acid-induced S6K phosphorylation (mTORC1 [1]): significantly inhibited
LC3 puncta per cell compared to control siRNA (EGFP-LC3 puncta): statistically significant increase

VRS siRNA: siRNA AGAAGAGGAUGUCAUGACCGGUCUC, SEQ ID NO 17 (chemistry not given here)
amino acid-induced S6K phosphorylation (mTORC1 [1]): not
cell size (293T cells): no effect

CC(C)C[C@H](N)C(N)=O [leucinamide, L-Leucinamide]
S6K phosphorylation by the leucine analogue itself (mTORC1 [1]): significantly induced
leucine-induced S6K phosphorylation (mTORC1 [1]): further increased
S6K phosphorylation by the leucine analogue itself (mTORC1 [2]): significantly induced
leucine-induced S6K phosphorylation (mTORC1 [2]): further increased
